System: human monocytic cell line U937
Assay: Human U937 cellular necroptosis assay (TNFalpha + z-VAD-FMK, Cell Titer-Glo viability)
Type: cell-based
Settings: Homo sapiens, U-937, 22 h, U937 cells, 25 ng/mL human TNFalpha + 25 μM z-VAD-FMK, read-out: hU937 Avg IC50
Procedure: The human monocytic cell line U937 (CRL-1593.2) was purchased from ATCC. The cells were routinely maintained in RPMI-1640 Medium (Gibco, Catalog #11875-093) supplemented with 10% heat inactivated fetal bovine serum (Gibco, Catalog #16140-071), 100 units/mL penicillin and 100 μg/mL streptomycin (Gibco, Catalog #15140-122), in a humidified incubator (37° C., 5% CO2). For the assay, cells were resuspended in RPMI-1640 phenol red free Media (Gibco, Catalog #11835-030) supplemented with 10% fetal bovine serum (Sigma, Catalog #F2442), 100 units/mL penicillin and 100 ug/mL streptomycin. Cells were stimulated with 25 ng/mL human TNFalpha (Cell Sciences, Catalog #CSI15659B) and 25 μM z-VAD-FMK (R&D Systems, Catalog #FMK001) followed by seeding 5000 cells per well in a volume of 40 μL to a white, CulturPlate-384 (Perkin Elmer, Catalog #6007680). Stock solutions of the test compounds were prepared in 100% DMSO (Sigma, Catalog #D2650) and serially diluted 1:3 using 100% DMSO. Compounds were additionally diluted 1:40 in assay medium, and 10 μL/well was transferred to the plate. Following the compound addition the plate was incubated at 37° C. and 5% CO2 for 22 h. After 22 h, viability was assessed with the addition of 20 μL of Cell Titer-Glo 2.0 (Promega, Catalog #G9243). The tissue culture plate was shaken on an orbital shaker at 300 RPM for 15 minutes at rt in the dark. Luminescence was measured using a PerkinElmer Envision™ plate reader. IC50 values were calculated using a four-parameter logistic curve fit using Genedata Screener software. Results are shown below in Table 3, where the average value across multiple runs is given.

**Q.** With `N#Cc1ccc(OCC23CC(C(=O)N4N=CCC4c4cccc(C#N)c4)(C2)C3)nc1` (stereo not shown) [Example 281, 6-((3-(5-(3-cyanophenyl)-4,5-dihydro-1H-pyrazole-1-carbonyl)bicyclo[1.1.1]pentan-1-yl)methoxy)nicotinonitrile] as the compound, how does the IC50 read?
**A.** The IC50 was 0.148 µM.

**Q.** Which IC50 does the source give for `Cc1ccc(C2CC=NN2C(=O)C23CC(COc4ccc(C#N)cn4)(C2)C3)cc1` (stereo not shown) [Example 273, 6-((3-(5-(p-tolyl)-4,5-dihydro-1H-pyrazole-1-carbonyl)-bicyclo[1.1.1]pentan-1-yl)-methoxy)nicotinonitrile] here?
**A.** Its IC50 is 0.03 µM.

**Q.** For `N#Cc1ccc2c(cnn2CC23CC(C(=O)N4N=CCC4c4ccc(F)c(F)c4)(C2)C3)c1` (stereo not shown) [Example 242, 1-((3-(5-(3,4-difluorophenyl)-4,5-dihydro-1H-pyrazole-1-carbonyl)bicyclo[1.1.1]pentan-1-yl)methyl)-1H-indazole-5-carbonitrile], which IC50 is on record?
**A.** The IC50 was 0.02 µM.

**Q.** With `N#Cc1ccc2c(cnn2CC23CC(C(=O)N4N=CCC4c4ncc5ccccn45)(C2)C3)c1` (stereo not shown) [Example 247, 1-((3-(5-(imidazo[1,5-a]-pyridin-3-yl)-4,5-dihydro-1H-pyrazole-1-carbonyl)bicyclo[1.1.1]pentan-1-yl)methyl)-1H-indazole-5-carbonitrile] as the compound, how does the IC50 read?
**A.** The IC50 was 0.081 µM.

**Q.** For `Cc1ccccc1C1CC=NN1C(=O)C12CC(COc3ccc(C#N)cn3)(C1)C2` (stereo not shown) [Example 314, 6-((3-(5-(o-tolyl)-4,5-dihydro-1H-pyrazole-1-carbonyl)-bicyclo[1.1.1]pentan-1-yl)-methoxy)nicotinonitrile], which IC50 is on record?
**A.** The IC50 was 0.475 µM.

**Q.** How did the IC50 turn out when `N#Cc1ccc(OCC23CC(C(=O)N4N=CCC4c4cc(F)cc(F)c4)(C2)C3)cn1` (stereo not shown) [Example 224, 5-((3-(5-(3,5-difluorophenyl)-4,5-dihydro-1H-pyrazole-1-carbonyl)bicyclo[1.1.1]pentan-1-yl)methoxy)picolinonitrile] was run?
**A.** Its IC50 is 0.051 µM.

**Q.** `C[C@H](NC(=O)C12CC(Cn3ncc4cc(C#N)ccc43)(C1)C2)c1c(F)cccc1Cl` [Example 256, (S)-N-(1-(2-chloro-6-fluoro-phenyl)ethyl)-3-((5-cyano-1H-indazol-1-yl)methyl)bicyclo-[1.1.1]pentane-1-carboxamide] was tested. Which IC50 did it give?
**A.** The IC50 was 0.895 µM.

**Q.** Which IC50 does the source give for `N#Cc1ccc2c(cnn2CC23CC(C(=O)N4N=CCC4c4ccc(F)cc4)(C2)C3)c1` (stereo not shown) [Example 244, 1-((3-(5-(4-fluorophenyl)-4,5-dihydro-1H-pyrazole-1-carbonyl)bicyclo[1.1.1]pentan-1-yl)methyl)-1H-indazole-5-carbonitrile] here?
**A.** Its IC50 is 0.037 µM.

**Q.** With `N#Cc1nc(C2CC2)n(CC23CC(C(=O)N4N=CCC4c4cc(F)cc(F)c4)(C2)C3)n1` (stereo not shown) [Example 221, 5-cyclopropyl-1-((3-(5-(3,5-difluorophenyl)-4,5-dihydro-1H-pyrazole-1-carbonyl)-bicyclo[1.1.1]pentan-1-yl)-methyl)-1H-1,2,4-triazole-3-carbonitrile] as the compound, how does the IC50 read?
**A.** The IC50 was 0.992 µM.

**Q.** How did the IC50 turn out when `N#Cc1cnc(OCC23CC(C(=O)NCc4c(F)cccc4F)(C2)C3)cn1` [Example 294, 3-(((5-cyanopyrazin-2-yl)oxy)-methyl)-N-(2,6-difluoro-benzyl)bicyclo[1.1.1]pentane-1-carboxamide] was run?
**A.** Its IC50 is 5.61 µM.

**Q.** How did the IC50 turn out when `N#Cc1ccc(OCC23CC(C(=O)N4N=CCC4c4ncc(F)cc4F)(C2)C3)nc1` (stereo not shown) [Example 291, 6-((3-(5-(3,5-difluoropyridin-2-yl)-4,5-dihydro-1H-pyrazole-1-carbonyl)bicyclo-[1.1.1]pentan-1-yl)methoxy)-nicotinonitrile] was run?
**A.** Its IC50 is 0.62 µM.

**Q.** For `N#Cc1ccc(OCC23CC(C(=O)N4N=CCC4c4cc(F)c(C5CC5)c(F)c4)(C2)C3)nc1` (stereo not shown) [Example 339, 6-((3-(5-(4-cyclopropyl-3,5-difluorophenyl)-4,5-dihydro-1H-pyrazole-1-carbonyl)-bicyclo[1.1.1]pentan-1-yl)-methoxy)nicotinonitrile], which IC50 is on record?
**A.** Its IC50 is 0.453 µM.

**Q.** How did the IC50 turn out when `N#Cc1ccc(OCC23CC(C(=O)N4N=CCC4c4cc(F)cc(F)c4)(C2)C3)nn1` (stereo not shown) [Example 323, 6-((3-(5-(3,5-difluorophenyl)-4,5-dihydro-1H-pyrazole-1-carbonyl)bicyclo[1.1.1]pentan-1-yl)methoxy)pyridazine-3-carbonitrile] was run?
**A.** The IC50 was 0.153 µM.

**Q.** For `N#Cc1ccc(OCC23CC(C(=O)N4N=CCC4c4cncc(C#N)c4)(C2)C3)nc1` (stereo not shown) [Example 286, 5-(1-(3-(((5-cyanopyridin-2-yl)oxy)methyl)bicyclo[1.1.1]-pentane-1-carbonyl)-4,5-dihydro-1H-pyrazol-5-yl)-nicotinonitrile], which IC50 is on record?
**A.** Its IC50 is 0.218 µM.

**Q.** With `N#Cc1cnc(OCC23CC(C(=O)N4[C@@H]5C[C@@H]5C[C@H]4c4cc(F)cc(F)c4)(C2)C3)cn1` [Example 209, 5-((3-((1R,3S,5R)-3-(3,5-difluorophenyl)-2-azabicyclo[3.1.0]hexane-2-carbonyl)bicyclo[1.1.1]pentan-1-yl)methoxy)pyrazine-2-carbonitrile] as the compound, how does the IC50 read?
**A.** Its IC50 is 0.362 µM.

**Q.** How did the IC50 turn out when `N#Cc1ccc(OCC23CC(C(=O)N4N=CCC4c4cnccn4)(C2)C3)nc1` (stereo not shown) [Example 280, 6-((3-(5-(pyrazin-2-yl)-4,5-dihydro-1H-pyrazole-1-carbonyl)bicyclo[1.1.1]pentan-1-yl)methoxy)nicotinonitrile] was run?
**A.** Its IC50 is 0.106 µM.

**Q.** `Cc1ncc(C2CC=NN2C(=O)C23CC(Cn4ncc5cc(C#N)ccc54)(C2)C3)cc1F` (stereo not shown) [Example 246, 1-((3-(5-(5-fluoro-6-methyl-pyridin-3-yl)-4,5-dihydro-1H-pyrazole-1-carbonyl)bicyclo-[1.1.1]pentan-1-yl)methyl)-1H-indazole-5-carbonitrile] was tested. Which IC50 did it give?
**A.** Its IC50 is 0.073 µM.

**Q.** Which IC50 does the source give for `N#Cc1ccc(OCC23CC(C(=O)N4N=CCC4c4cccc(F)c4F)(C2)C3)nc1` (stereo not shown) [Example 270, 6-((3-(5-(2,3-difluorophenyl)-4,5-dihydro-1H-pyrazole-1-carbonyl)bicyclo[1.1.1]pentan-1-yl)methoxy)nicotinonitrile] here?
**A.** Its IC50 is 0.016 µM.

**Q.** For `Cc1ccc(C2CC=NN2C(=O)C23CC(Cn4ncc5cc(C#N)ccc54)(C2)C3)cc1` (stereo not shown) [Example 309, 1-((3-(5-(p-tolyl)-4,5-dihydro-1H-pyrazole-1-carbonyl)-bicyclo[1.1.1]pentan-1-yl)-methyl)-1H-indazole-5-carbonitrile], which IC50 is on record?
**A.** The IC50 was 0.013 µM.

**Q.** For `Cc1cccc(C2CC=NN2C(=O)C23CC(Cn4ncc5cc(C#N)ccc54)(C2)C3)c1` (stereo not shown) [Example 243, 1-((3-(5-(m-tolyl)-4,5-dihydro-1H-pyrazole-1-carbonyl)-bicyclo[1.1.1]pentan-1-yl)-methyl)-1H-indazole-5-carbonitrile], which IC50 is on record?
**A.** Its IC50 is 0.031 µM.

**Q.** For `N#Cc1ccc(OCC23CC(C(=O)N4N=CCC4c4cc(F)ccc4F)(C2)C3)nc1` (stereo not shown) [Example 308, 6-((3-(5-(2,5-difluorophenyl)-4,5-dihydro-1H-pyrazole-1-carbonyl)bicyclo[1.1.1]pentan-1-yl)methoxy)nicotinonitrile], which IC50 is on record?
**A.** The IC50 was 0.011 µM.

**Q.** For `Cc1ccc(C2CC=NN2C(=O)C23CC(Cn4ncc5cc(C#N)ccc54)(C2)C3)c(F)c1` (stereo not shown) [Example 238, 1-((3-(5-(2-fluoro-4-methyl-phenyl)-4,5-dihydro-1H-pyrazole-1-carbonyl)bicyclo-[1.1.1]pentan-1-yl)methyl)-1H-indazole-5-carbonitrile], which IC50 is on record?
**A.** The IC50 was 0.0084 µM.

**Q.** For `Cc1ccc(C2CC=NN2C(=O)C23CC(COc4ccc(C#N)cn4)(C2)C3)cc1F` (stereo not shown) [Example 272, 6-((3-(5-(3-fluoro-4-methyl-phenyl)-4,5-dihydro-1H-pyrazole-1-carbonyl)bicyclo-[1.1.1]pentan-1-yl)-methoxy)nicotinonitrile], which IC50 is on record?
**A.** Its IC50 is 0.024 µM.

**Q.** For `Cc1nc(OCC23CC(C(=O)N4N=CCC4c4cnc(C#N)cn4)(C2)C3)ccc1F` (stereo not shown) [Example 313, 5-(1-(3-(((5-fluoro-6-methylpyridin-2-yl)oxy)-methyl)bicyclo[1.1.1]pentane-1-carbonyl)-4,5-dihydro-1H-pyrazol-5-yl)pyrazine-2-carbonitrile], which IC50 is on record?
**A.** Its IC50 is 0.251 µM.

**Q.** `C[C@@H](c1c(F)cccc1F)N(C)C(=O)C12CC(COc3cnc(C#N)cn3)(C1)C2` [Example 292, (S)-3-(((5-cyanopyrazin-2-yl)oxy)methyl)-N-(1-(2,6-difluorophenyl)ethyl)-N-methylbicyclo[1.1.1]pentane-1-carboxamide] was tested. Which IC50 did it give?
**A.** Its IC50 is 0.956 µM.

**Q.** Which IC50 does the source give for `N#Cc1ccc(OCC23CC(C(=O)N4N=CCC4c4cccc(Cl)c4Cl)(C2)C3)nc1` (stereo not shown) [Example 290, 6-((3-(5-(2,3-dichlorophenyl)-4,5-dihydro-1H-pyrazole-1-carbonyl)bicyclo[1.1.1]pentan-1-yl)methoxy)nicotinonitrile] here?
**A.** The IC50 was 0.445 µM.

**Q.** For `N#Cc1ccc(OCC23CC(C(=O)N4N=CCC4c4cncc(F)c4)(C2)C3)nc1` (stereo not shown) [Example 285, 6-((3-(5-(5-fluoropyridin-3-yl)-4,5-dihydro-1H-pyrazole-1-carbonyl)bicyclo[1.1.1]-pentan-1-yl)methoxy)-nicotinonitrile], which IC50 is on record?
**A.** Its IC50 is 0.164 µM.

Same assay, conditions: U937 cells, 25 ng/mL human TNFalpha + 25 μM z-VAD-FMK, 22 h; read-out: hU937 Avg IC50

**Q.** How did the IC50 turn out when `N#Cc1cnc(OCC23CC(C(=O)NCc4ccccc4F)(C2)C3)cn1` [Example 300, 3-(((5-cyanopyrazin-2-yl)-oxy)methyl)-N-(2-fluoro-benzyl)bicyclo[1.1.1]pentane-1-carboxamide] was run?
**A.** Its IC50 is 7.42 µM.

From patent US20250214942A1, “INHIBITORS OF RECEPTOR INTERACTING PROTEIN KINASE I FOR THE TREATMENT OF DISEASE” (Board of Regents, The University of Texas System, priority 2019, published 2025)
